# Laboratory results: patent publication US9045486B2, “Pyrimidone derivatives and their use in the treatment, amelioration or prevention of a viral disease” (priority 2013, dated 2015)
# Target: T1, influenza A virus (IAV) PA-Nter fragment (amino acids 1-209) (Influenza A virus, UniProt P31343)
# T1 construct: PA-Nter fragment (amino acids 1-209); made in house
# Assay: FRET endonuclease activity assay
# Assay type: biochemical
# Settings: 0.5 μM PA-Nter, 1.6 μM dual-labelled RNA substrate; IC50 from initial reaction velocities (v0)
row,SMILES,IC50 [nM]
1,CC(C)N1CCn2c(Cc3ccccc3-c3ccccc3Cl)nc(=O)c(O)c2C1=O,657
2,O=C1NCCn2c(Cc3ccccc3-c3ccccc3)nc(=O)c(O)c21,60
3,CC(C)N1CCn2c(Cc3ccccc3-c3ccccc3)nc(=O)c(O)c2C1=O,196
4,CN1CCn2c(Cc3ccccc3-c3ccccc3Cl)nc(=O)c(O)c2C1=O,175
5,CN1CCn2c(CC3(c4ccccc4)CCCC3)nc(=O)c(O)c2C1=O,116
6,CC(C)N1CCn2c(CC3(c4ccccc4)CCCC3)nc(=O)c(O)c2C1=O,93
7,CN1CCn2c(CC3(c4ccc(Cl)cc4)CCCC3)nc(=O)c(O)c2C1=O,160
8,CC(C)N1CCn2c(CC3(c4ccc(Cl)cc4)CCCC3)nc(=O)c(O)c2C1=O,252
9,CC(N1CCn2c(CC3(c4ccc(Cl)cc4)CCCC3)nc(=O)c(O)c2C1=O)C(F)(F)F (stereo not shown),296
10,O=C1c2c(O)c(=O)nc(CC3(c4ccc(Cl)cc4)CCCC3)n2CCN1c1ccccc1,1180
11,CC(C)N1CCn2c(Cc3cccc4ccccc34)nc(=O)c(O)c2C1=O,1810
12,CC(C)N1CCn2c(Cc3cccc(Cl)c3Cl)nc(=O)c(O)c2C1=O,350
13,CC(C)N1CCn2c(Cc3ccccc3-c3cccc(Cl)c3Cl)nc(=O)c(O)c2C1=O,370
14,CC(C)N1CCn2c(Cc3ccccc3-c3ccc(Cl)c(Cl)c3)nc(=O)c(O)c2C1=O,2510
15,CC(C)N1CCn2c(Cc3ccccc3-c3ccc(Cl)cc3)nc(=O)c(O)c2C1=O,1370
16,COc1ccc(-c2ccccc2)c(Cc2nc(=O)c(O)c3n2CCN(C(C)C)C3=O)c1,430
17,CC(c1ccccc1-c1ccccc1)c1nc(=O)c(O)c2n1CCN(C(C)C)C2=O (stereo not shown),1700
18,CC(C)N1CCn2c(Cc3cscc3-c3ccccc3)nc(=O)c(O)c2C1=O,1390
19,CC(c1ccccc1)N1CCn2c(CC3(c4ccc(Cl)cc4)CCCC3)nc(=O)c(O)c2C1=O (stereo not shown),1130
20,CC(C)N1CCn2c(CC(C)(C)c3ccccc3)nc(=O)c(O)c2C1=O,250
21,CC(C)N1CCn2c(CC3(c4ccccc4)CCCCC3)nc(=O)c(O)c2C1=O,120
22,CC(C)N1CCn2c(CC3(c4ccc(Cl)c(Cl)c4)CCCC3)nc(=O)c(O)c2C1=O,610
23,CC(C)N1CCn2c(CC3(c4cccc(Cl)c4)CCCC3)nc(=O)c(O)c2C1=O,320

row,SMILES,IC50 [nM]
1,CC(C)N1CCn2c(CC3(c4ccc5ccccc5c4)CCCC3)nc(=O)c(O)c2C1=O,110
2,CC(C)N1CCn2c(Cc3ccccc3-c3cccc(F)c3F)nc(=O)c(O)c2C1=O,200
3,CC(C)N1CCn2c([C@@H]3CCC[C@@H]3c3ccccc3)nc(=O)c(O)c2C1=O,500
4,CC(C)N1CCn2c([C@H]3CCC[C@H]3c3ccccc3)nc(=O)c(O)c2C1=O,230
5,CC(C)N1CCn2c(CC(C)(C)n3ccc4ccccc43)nc(=O)c(O)c2C1=O,240
6,CC(C)N1CCn2c(Cc3cc(O)ccc3-c3ccccc3)nc(=O)c(O)c2C1=O,146
7,COc1ccc(-c2ccccc2Cc2nc(=O)c(O)c3n2CCN(C(C)C)C3=O)cc1,122
8,CC(C)N1CCn2c(Cc3ccccc3C3CCCCC3)nc(=O)c(O)c2C1=O,114
9,CC(C)N1CCn2c(Cc3ccccc3-c3ccncc3)nc(=O)c(O)c2C1=O,94
10,CC(C)N1CCn2c(Cc3ccccc3-c3cccc(F)c3)nc(=O)c(O)c2C1=O,380
11,CC(C)N1CCn2c(Cc3ncccc3-c3ccccc3)nc(=O)c(O)c2C1=O,380
12,CC(C)N1CCn2c(Cc3ccccc3-c3ccc(F)c(F)c3)nc(=O)c(O)c2C1=O,1060
13,CC(C)c1ccc(-c2ccccc2Cc2nc(=O)c(O)c3n2CCN(C(C)C)C3=O)cc1,700
14,CC(C)N1CCn2c(Cc3ccccc3-c3ccc(F)cc3)nc(=O)c(O)c2C1=O,1550
15,CC(C)N1CCn2c(Cc3ccccc3-c3ccc(C#N)cc3)nc(=O)c(O)c2C1=O,300
16,CC(C)N1CCn2c(Cc3ccccc3-c3ccc(C(F)(F)F)c(F)c3)nc(=O)c(O)c2C1=O,380
17,CC(C)N1CCn2c(Cc3ccccc3-c3ccc(C(F)(F)F)cc3)nc(=O)c(O)c2C1=O,320
18,CC(C)N1CCn2c(Cc3ccccc3-c3ccc(OC(F)(F)F)cc3)nc(=O)c(O)c2C1=O,550
19,CC(C)N1CCn2c(Cc3ccccc3-c3ccc4c(c3)OCO4)nc(=O)c(O)c2C1=O,229
20,O=C1c2c(O)c(=O)nc(CC3(c4ccccc4)CCCC3)n2CCN1C1CCCC1,521
21,CSc1ccc(-c2ccccc2Cc2nc(=O)c(O)c3n2CCN(C(C)C)C3=O)cc1,116
22,O=C1c2c(O)c(=O)nc(CC3(c4ccccc4)CCCC3)n2CCN1C1CCC1,102
23,CC(C)(C)CN1CCn2c(CC3(c4ccccc4)CCCC3)nc(=O)c(O)c2C1=O,143

row,SMILES,IC50 [nM]
1,O=C1c2c(O)c(=O)nc(CC3(c4ccccc4)CCCC3)n2CCN1CC1CC1,138
2,O=C1c2c(O)c(=O)nc(CC3(c4ccccc4)CCCC3)n2CCN1C1COC1,134
3,O=C1c2c(O)c(=O)nc(CC3(c4ccccc4)CCCC3)n2CCN1C1CC1,98
4,O=C1c2c(O)c(=O)nc(CC3(c4ccccc4)CCCC3)n2CCN1C1CCOCC1,43
5,O=C1c2c(OCc3ccccc3)c(=O)nc(CC3(c4ccccc4)CCCC3)n2CCN1C1CCOCC1,> 25000
6,CC(C)N1CCn2c(CC3(c4ccc(C#N)cc4)CCCC3)nc(=O)c(O)c2C1=O,41
7,CC(C)N1CCn2c(CC3(c4cc(Cl)ccc4Cl)CCCC3)nc(=O)c(O)c2C1=O,295
8,CC(C)N1CCn2c(CC3(c4ccc(C(F)(F)F)cc4)CCCC3)nc(=O)c(O)c2C1=O,262
9,CC(C)N1CCn2c(CC3(c4ccccc4)CCC(F)(F)CC3)nc(=O)c(O)c2C1=O,84
10,O=C1c2c(O)c(=O)nc(CC3(c4ccccc4)CCCC3)n2CCN1Cc1ccc(F)cc1,422
11,O=C1c2c(O)c(=O)nc(CC3(c4ccc(Cl)cc4)CCCC3)n2CCN1CC1CC1,205
12,O=C1c2c(OCc3ccccc3)c(=O)nc(CC3(c4ccc(Cl)cc4)CCCC3)n2CCN1CC1CC1,> 25000
13,O=C1c2c(O)c(=O)nc(CC3(c4ccc(Cl)cc4)CCCC3)n2CCN1C1CC1,730
14,O=C1c2c(O)c(=O)nc(CC3(c4cccc5ccccc45)CCCC3)n2CCN1CC1CC1,140
15,CN1CCn2c(CC3(c4cccc5ccccc45)CCCC3)nc(=O)c(O)c2C1=O,110
16,O=C1c2c(O)c(=O)nc(CC3(c4ccc(Cl)cc4)CCCC3)n2CCN1C1CCOCC1,60
17,O=C1c2c(O)c(=O)nc(CC3(c4cccc5ccccc45)CCCC3)n2CCN1C1CCOCC1,110
18,O=C1c2c(O)c(=O)nc(CC3(c4cccc5ccccc45)CCCC3)n2CCN1C1CC1,104
19,O=C1c2c(O)c(=O)nc(CC3(c4cccc5ccccc45)CCCC3)n2CCN1C1COC1,> 25000
20,O=C1c2c(O)c(=O)nc(CC3(c4cccc5ccccc45)CCCC3)n2CCN1Cc1ccccc1,670
21,CN1CCn2c(CC3(n4ccc5cccnc54)CCCC3)nc(=O)c(O)c2C1=O,80
22,CC(C)N1CCn2c(CC3(n4ccc5cccnc54)CCCC3)nc(=O)c(O)c2C1=O,20
23,O=C1c2c(O)c(=O)nc(CC3(n4ccc5cccnc54)CCCC3)n2CCN1CC1CC1,141

row,SMILES,IC50 [nM]
1,O=C1c2c(OCc3ccccc3)c(=O)nc(CC3(n4ccc5cccnc54)CCCC3)n2CCN1CC1CC1,> 25000
2,O=C1c2c(O)c(=O)nc(CC3(n4ccc5cccnc54)CCCC3)n2CCN1C1COC1,108
3,O=C1c2c(O)c(=O)nc(CC3(n4ccc5cccnc54)CCCC3)n2CCN1C1CC1,92
4,O=C1c2c(O)c(=O)nc(CC3(n4ccc5cccnc54)CCCC3)n2CCN1C1CCC1,173
5,CC(C)N1CCn2c(Cc3ccc(Cl)cc3-c3ccc(F)cc3)nc(=O)c(O)c2C1=O,436
6,CC(C)N1CCn2c(Cc3ccc(Cl)cc3-c3ccc(Cl)cc3)nc(=O)c(O)c2C1=O,266
7,CC(C)N1CCn2c(Cc3ccc(Cl)cc3-c3cccc(F)c3)nc(=O)c(O)c2C1=O,58
8,CC(C)N1CCn2c(Cc3ccc(Cl)cc3-c3cccnc3)nc(=O)c(O)c2C1=O,81
9,CC(C)N1CCn2c(Cc3ccc(Cl)cc3-c3ccncc3)nc(=O)c(O)c2C1=O,110
10,CC(C)N1CCn2c(Cc3ccc(Cl)cc3Br)nc(=O)c(OCc3ccccc3)c2C1=O,> 25000
11,CC(C)N1CCn2c(CC3(c4cccc5ccccc45)CCCC3)nc(=O)c(O)c2C1=O,270
12,CC(C)N1CCn2c(CC3(c4cc(C(F)(F)F)cc(C(F)(F)F)c4)CCCC3)nc(=O)c(O)c2C1=O,318
13,CC(C)N1CCn2c(CC3(c4cccc(C(F)(F)F)c4)CCCC3)nc(=O)c(O)c2C1=O,460
14,CC(C)N1CCn2c(-c3ccccn3)nc(=O)c(O)c2C1=O,1890
15,O=C1c2c(O)c(=O)nc(CC3(c4ccc(Cl)cc4)CCCC3)n2CCN1Cc1ccccc1,990
16,O=C1NCCn2c(CC3(c4ccc(Cl)cc4)CCCC3)nc(=O)c(O)c21,1270
17,CC(C)N1CCn2c(CC3(c4ccccn4)CCCC3)nc(=O)c(O)c2C1=O,97
18,CN1CCn2c(CC3(c4ccccn4)CCCC3)nc(=O)c(O)c2C1=O,63
19,CC(C)N1CCn2c(Cc3c(Cl)cccc3Cl)nc(=O)c(O)c2C1=O [drawing 10],392
20,CC(C)N1CCn2c(Cc3c(Cl)cccc3Cl)nc(=O)c(O)c2C1=O [drawing 18],390
21,O=C1NCCn2c(CC3(c4cccc5ccccc45)CCCC3)nc(=O)c(O)c21 [drawing 712],162
22,O=C1NCCn2c(CC3(c4cccc5ccccc45)CCCC3)nc(=O)c(O)c21 [drawing 722],160
